Legend:
[1] = target: T1, Activin receptor type-1 (Homo sapiens) (UniProt Q04771)
T1 sequence (whole entry): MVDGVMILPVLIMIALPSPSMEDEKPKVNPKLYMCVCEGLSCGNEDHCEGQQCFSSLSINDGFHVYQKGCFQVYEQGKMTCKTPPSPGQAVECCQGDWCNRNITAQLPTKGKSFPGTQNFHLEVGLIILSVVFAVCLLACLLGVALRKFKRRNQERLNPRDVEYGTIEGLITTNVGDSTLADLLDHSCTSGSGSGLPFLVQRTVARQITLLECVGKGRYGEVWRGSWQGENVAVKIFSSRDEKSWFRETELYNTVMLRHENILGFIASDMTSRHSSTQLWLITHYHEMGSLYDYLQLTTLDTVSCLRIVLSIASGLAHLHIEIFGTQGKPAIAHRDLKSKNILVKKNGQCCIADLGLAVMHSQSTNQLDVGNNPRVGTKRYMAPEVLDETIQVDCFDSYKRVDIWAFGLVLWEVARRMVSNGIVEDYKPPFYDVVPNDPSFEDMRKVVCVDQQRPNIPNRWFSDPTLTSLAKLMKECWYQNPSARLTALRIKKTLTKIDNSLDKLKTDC

[2] = target: Tyrosine-protein kinase ABL1 (Homo sapiens) (UniProt P00519)
Chain of Tyrosine-protein kinase ABL1 (Homo sapiens) (P00519 whole entry): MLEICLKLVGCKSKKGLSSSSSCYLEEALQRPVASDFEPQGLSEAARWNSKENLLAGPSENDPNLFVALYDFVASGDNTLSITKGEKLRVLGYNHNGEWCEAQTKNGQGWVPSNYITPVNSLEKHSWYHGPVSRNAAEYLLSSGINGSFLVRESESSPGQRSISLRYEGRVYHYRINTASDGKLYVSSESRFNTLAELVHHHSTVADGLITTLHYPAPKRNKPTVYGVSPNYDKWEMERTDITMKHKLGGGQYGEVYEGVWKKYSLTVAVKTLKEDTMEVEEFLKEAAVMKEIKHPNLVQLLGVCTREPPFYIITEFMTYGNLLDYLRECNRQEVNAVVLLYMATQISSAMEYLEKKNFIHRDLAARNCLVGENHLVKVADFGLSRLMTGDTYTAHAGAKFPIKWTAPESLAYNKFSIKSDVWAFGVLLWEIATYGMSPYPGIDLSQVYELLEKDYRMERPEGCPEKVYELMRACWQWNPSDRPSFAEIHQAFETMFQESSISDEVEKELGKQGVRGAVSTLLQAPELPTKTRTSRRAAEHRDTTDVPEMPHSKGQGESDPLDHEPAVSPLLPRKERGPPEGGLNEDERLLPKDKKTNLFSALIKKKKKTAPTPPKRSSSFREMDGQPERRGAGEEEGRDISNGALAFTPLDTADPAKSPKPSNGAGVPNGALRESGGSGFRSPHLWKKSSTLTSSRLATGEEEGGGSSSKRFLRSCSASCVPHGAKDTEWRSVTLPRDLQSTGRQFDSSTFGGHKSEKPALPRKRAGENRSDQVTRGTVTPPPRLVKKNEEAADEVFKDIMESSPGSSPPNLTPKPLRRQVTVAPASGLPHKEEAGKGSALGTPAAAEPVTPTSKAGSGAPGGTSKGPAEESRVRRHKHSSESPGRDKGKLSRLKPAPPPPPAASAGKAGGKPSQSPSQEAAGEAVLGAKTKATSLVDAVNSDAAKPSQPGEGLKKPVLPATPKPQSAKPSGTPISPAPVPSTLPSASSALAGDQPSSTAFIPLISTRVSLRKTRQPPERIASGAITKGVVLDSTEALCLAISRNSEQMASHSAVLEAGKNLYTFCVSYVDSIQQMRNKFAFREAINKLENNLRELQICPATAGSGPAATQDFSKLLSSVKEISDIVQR

[3] = target: Serine/threonine-protein kinase/endoribonuclease IRE1 (Homo sapiens) (UniProt O75460)
Chain of Serine/threonine-protein kinase/endoribonuclease IRE1 (Homo sapiens) (O75460 19-977 limits assumed): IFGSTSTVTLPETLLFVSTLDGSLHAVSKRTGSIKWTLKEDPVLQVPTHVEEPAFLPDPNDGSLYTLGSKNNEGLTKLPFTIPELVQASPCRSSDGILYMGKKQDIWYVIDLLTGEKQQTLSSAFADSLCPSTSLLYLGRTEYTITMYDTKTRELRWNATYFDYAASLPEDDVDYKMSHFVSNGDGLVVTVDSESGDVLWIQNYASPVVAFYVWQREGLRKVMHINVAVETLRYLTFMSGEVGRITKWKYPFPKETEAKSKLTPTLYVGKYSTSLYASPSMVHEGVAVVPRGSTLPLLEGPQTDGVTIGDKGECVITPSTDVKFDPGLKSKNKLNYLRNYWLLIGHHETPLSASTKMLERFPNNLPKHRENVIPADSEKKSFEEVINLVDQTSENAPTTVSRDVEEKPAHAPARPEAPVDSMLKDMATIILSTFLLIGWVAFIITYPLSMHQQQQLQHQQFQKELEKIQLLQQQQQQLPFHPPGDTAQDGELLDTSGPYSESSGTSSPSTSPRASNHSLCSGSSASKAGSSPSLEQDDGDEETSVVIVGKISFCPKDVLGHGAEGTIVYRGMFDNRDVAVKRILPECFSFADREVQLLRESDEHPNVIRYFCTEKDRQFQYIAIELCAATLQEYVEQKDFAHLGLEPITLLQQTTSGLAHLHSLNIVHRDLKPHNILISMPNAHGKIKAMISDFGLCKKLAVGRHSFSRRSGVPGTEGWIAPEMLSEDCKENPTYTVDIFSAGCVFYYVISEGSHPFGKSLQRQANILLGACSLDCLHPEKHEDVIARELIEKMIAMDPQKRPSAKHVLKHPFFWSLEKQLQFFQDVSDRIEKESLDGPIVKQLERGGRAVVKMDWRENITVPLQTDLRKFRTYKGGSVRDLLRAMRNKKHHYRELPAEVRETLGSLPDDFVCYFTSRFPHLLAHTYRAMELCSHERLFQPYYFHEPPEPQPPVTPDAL

[4] = target: Bone morphogenetic protein receptor type-2 (Homo sapiens) (UniProt Q13873)
[5] = target: Tyrosine-protein kinase ABL2 (Homo sapiens) (UniProt P42684)
[6] = target: T2, Tyrosine-protein kinase ZAP-70 (Homo sapiens) (UniProt P43403)
T2 sequence (whole entry): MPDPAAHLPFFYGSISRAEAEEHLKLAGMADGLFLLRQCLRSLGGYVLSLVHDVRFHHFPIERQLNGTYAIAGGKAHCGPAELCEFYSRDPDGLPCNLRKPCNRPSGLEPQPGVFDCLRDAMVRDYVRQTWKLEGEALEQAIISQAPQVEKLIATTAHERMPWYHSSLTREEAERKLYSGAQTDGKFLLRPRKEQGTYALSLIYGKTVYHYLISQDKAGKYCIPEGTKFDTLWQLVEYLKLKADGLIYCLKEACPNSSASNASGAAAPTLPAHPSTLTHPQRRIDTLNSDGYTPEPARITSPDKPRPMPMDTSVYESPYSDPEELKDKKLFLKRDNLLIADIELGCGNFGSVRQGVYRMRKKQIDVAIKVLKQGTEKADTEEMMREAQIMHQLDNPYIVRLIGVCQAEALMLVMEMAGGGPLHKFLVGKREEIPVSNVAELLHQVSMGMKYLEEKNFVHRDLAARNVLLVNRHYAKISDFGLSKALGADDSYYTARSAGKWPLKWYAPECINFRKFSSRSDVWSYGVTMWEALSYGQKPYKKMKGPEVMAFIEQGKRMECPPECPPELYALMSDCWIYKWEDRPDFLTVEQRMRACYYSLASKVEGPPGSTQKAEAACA

[7] = target: Cyclin-dependent kinase 13 (Homo sapiens) (UniProt Q14004)
[8] = target: Cyclin-dependent kinase 3 (Homo sapiens) (UniProt Q00526)
Chain of Cyclin-dependent kinase 3 (Homo sapiens) (Q00526 whole entry, looked up): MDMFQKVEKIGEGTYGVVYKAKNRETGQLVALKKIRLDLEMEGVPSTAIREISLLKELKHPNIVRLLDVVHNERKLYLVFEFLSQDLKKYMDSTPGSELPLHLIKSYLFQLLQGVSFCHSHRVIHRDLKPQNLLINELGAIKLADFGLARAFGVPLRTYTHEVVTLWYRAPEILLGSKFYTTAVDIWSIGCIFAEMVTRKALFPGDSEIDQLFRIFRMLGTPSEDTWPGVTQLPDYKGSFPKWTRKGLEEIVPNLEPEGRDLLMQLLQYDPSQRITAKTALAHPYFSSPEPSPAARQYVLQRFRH

[9] = tested on: Hepatocyte growth factor receptor (Homo sapiens), P08581 [Y1235D]
[10] = target: Mitogen-activated protein kinase kinase kinase 19 (Homo sapiens) (UniProt Q56UN5)
[11] = target: T3, Alpha-2B adrenergic receptor (Homo sapiens) (UniProt P18089); conditions: Compound concentration 10.0 uM
T3 sequence (whole entry): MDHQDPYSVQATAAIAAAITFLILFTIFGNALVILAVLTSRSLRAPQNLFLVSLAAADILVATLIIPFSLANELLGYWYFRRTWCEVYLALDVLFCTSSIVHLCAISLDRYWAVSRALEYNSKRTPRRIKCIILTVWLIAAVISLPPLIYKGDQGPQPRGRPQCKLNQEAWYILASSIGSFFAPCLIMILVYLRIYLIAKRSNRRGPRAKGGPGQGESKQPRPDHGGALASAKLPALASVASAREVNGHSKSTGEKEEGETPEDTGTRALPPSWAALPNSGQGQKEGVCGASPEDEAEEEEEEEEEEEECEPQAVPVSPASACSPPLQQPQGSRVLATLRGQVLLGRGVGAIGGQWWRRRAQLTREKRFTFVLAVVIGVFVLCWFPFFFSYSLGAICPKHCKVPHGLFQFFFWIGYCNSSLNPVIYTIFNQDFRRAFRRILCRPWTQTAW

[12] = target: Dual specificity mitogen-activated protein kinase kinase 7 (Homo sapiens) (UniProt O14733)
Chain of Dual specificity mitogen-activated protein kinase kinase 7 (Homo sapiens) (O14733 whole entry): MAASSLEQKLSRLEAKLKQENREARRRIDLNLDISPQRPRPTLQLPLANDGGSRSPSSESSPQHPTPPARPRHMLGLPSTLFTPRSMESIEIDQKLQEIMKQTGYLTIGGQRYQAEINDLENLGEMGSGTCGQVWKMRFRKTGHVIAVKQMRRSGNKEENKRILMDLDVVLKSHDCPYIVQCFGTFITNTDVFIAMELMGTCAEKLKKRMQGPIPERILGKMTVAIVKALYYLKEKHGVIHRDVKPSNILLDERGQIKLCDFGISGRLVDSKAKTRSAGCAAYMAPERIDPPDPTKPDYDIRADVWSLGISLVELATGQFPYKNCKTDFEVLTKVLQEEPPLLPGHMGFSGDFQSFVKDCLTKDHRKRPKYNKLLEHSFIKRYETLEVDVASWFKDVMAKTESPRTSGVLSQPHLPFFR

[13] = target: Receptor-type tyrosine-protein kinase FLT3 (Homo sapiens) (UniProt P36888)
Chain of Receptor-type tyrosine-protein kinase FLT3 (Homo sapiens) (P36888 whole entry): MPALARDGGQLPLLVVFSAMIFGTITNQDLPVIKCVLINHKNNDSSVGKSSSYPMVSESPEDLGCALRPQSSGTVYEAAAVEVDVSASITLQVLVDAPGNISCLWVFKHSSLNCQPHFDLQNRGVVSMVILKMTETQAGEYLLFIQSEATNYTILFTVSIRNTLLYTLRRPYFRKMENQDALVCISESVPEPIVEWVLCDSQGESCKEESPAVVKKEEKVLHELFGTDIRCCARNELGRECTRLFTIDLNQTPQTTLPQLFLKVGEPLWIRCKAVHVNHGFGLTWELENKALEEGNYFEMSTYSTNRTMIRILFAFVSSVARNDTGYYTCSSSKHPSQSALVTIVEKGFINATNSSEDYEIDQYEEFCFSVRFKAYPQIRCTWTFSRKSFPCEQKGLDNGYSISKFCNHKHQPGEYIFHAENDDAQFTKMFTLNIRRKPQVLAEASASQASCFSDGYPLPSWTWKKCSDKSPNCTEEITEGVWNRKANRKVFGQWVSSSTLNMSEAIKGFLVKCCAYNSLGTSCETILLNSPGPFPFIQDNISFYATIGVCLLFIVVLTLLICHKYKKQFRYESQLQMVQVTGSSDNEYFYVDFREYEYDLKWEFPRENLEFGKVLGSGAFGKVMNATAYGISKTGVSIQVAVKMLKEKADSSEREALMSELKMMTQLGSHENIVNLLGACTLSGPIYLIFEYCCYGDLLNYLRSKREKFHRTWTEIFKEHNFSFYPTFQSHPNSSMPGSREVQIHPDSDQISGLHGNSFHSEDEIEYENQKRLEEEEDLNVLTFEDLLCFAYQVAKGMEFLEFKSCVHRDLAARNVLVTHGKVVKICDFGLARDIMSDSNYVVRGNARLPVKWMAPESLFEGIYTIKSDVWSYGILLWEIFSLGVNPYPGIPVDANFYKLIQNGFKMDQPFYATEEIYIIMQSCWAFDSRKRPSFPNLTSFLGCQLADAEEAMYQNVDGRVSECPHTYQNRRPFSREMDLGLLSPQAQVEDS

[14] = target: Cyclin-dependent kinase 11B (Homo sapiens) (UniProt P21127)
[15] = target: Serine/threonine-protein kinase PLK3 (Homo sapiens) (UniProt Q9H4B4)
Chain of Serine/threonine-protein kinase PLK3 (Homo sapiens) (Q9H4B4 whole entry, looked up): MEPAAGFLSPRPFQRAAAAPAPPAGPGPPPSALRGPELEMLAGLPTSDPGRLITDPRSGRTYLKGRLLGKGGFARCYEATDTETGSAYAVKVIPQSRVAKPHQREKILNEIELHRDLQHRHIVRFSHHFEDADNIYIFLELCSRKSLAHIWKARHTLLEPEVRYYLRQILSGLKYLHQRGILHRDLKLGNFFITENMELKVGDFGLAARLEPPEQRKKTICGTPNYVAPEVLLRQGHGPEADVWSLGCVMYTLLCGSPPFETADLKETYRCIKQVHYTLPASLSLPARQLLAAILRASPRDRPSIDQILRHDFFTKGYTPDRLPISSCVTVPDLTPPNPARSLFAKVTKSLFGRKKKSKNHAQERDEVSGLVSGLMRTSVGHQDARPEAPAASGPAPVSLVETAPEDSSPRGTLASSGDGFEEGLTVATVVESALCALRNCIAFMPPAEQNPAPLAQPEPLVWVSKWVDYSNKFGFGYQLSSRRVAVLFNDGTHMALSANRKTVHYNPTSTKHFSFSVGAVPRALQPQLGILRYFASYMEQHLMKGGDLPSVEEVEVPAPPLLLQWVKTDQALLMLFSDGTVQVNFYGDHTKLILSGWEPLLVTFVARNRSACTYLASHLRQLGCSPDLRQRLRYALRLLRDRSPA

[16] = target: Mitogen-activated protein kinase kinase kinase 20 (Homo sapiens) (UniProt Q9NYL2)
[17] = target: Ephrin type-A receptor 7 (Homo sapiens) (UniProt Q15375)
[18] = target: Calcium/calmodulin-dependent protein kinase type 1 (Homo sapiens) (UniProt Q14012)
Chain of Calcium/calmodulin-dependent protein kinase type 1 (Homo sapiens) (Q14012 whole entry, looked up): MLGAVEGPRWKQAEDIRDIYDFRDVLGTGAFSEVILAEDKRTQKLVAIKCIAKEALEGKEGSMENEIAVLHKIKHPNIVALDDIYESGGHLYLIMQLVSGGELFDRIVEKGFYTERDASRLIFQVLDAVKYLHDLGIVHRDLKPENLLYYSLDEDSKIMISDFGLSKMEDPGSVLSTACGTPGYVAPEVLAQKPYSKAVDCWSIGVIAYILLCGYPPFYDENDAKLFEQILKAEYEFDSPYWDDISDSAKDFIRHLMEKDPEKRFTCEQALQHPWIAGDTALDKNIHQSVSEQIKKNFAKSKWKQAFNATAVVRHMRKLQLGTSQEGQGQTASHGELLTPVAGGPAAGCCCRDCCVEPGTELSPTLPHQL

[19] = target: Ribosomal protein S6 kinase alpha-5 (Homo sapiens) (UniProt O75582)
[20] = Compound concentration 100.0 nM
[21] = Compound concentration 1000.0 nM

C[C@@H]1CN(c2cc(-c3n[nH]c4ccc(OC5(C)CC5)cc34)ncn2)C[C@H](C)O1 [MLi-2]
inactive: residual activity [1, 20] 90% | residual activity [2, 20] 67% | residual activity [3, 20] 79% | residual activity [4, 20] 75% | residual activity [5, 20] 73% | residual activity [6, 20] 83% | residual activity [7, 20] 84% | residual activity [8, 20] 76% | residual activity [9, 20] 92% | residual activity [10, 20] 84% | inhibition [11] 6.1% | residual activity [12, 20] 77% | residual activity [13, 20] 99% | residual activity [14, 20] 88% | residual activity [15, 20] 84% | residual activity [16, 20] 92% | residual activity [17, 20] 82% | residual activity [18, 20] 100% | residual activity [19, 20] 89%

C[C@@H]1CN(c2cc(-c3nn(C)c4ccc(OC5(C)CC5)cc34)ncn2)C[C@H](C)O1 [MLi-2-NC]
inactive: residual activity [1, 21] 96% | residual activity [2, 21] 79% | residual activity [3, 21] 69% | residual activity [4, 21] 54% | residual activity [5, 21] 100% | residual activity [6, 21] 100% | residual activity [7, 21] 86% | residual activity [8, 21] 98% | residual activity [9, 21] 87% | residual activity [10, 21] 68% | inhibition [11] 27.2% | residual activity [12, 21] 74% | residual activity [13, 21] 96% | residual activity [14, 21] 88% | residual activity [15, 21] 84% | residual activity [16, 21] 100% | residual activity [17, 21] 99% | residual activity [18, 21] 100% | residual activity [19, 21] 79%
